# Measurements published in US20190115105A1, “TANDEM DUPLICATOR PHENOTYPE (TDP) AS A DISTINCT GENOMIC CONFIGURATION IN CANCER AND USE THEREOF” (The Jackson Laboratory, priority 2016, published 2019).
# Like-named read-outs stand apart in the source and are kept apart here.
# Legend:
# HCC2157 = settings: HCC2157, TNBC, TDP, TDP Score 0.076; GDSC data base; cited from earlier work
# HCC2218 = settings: HCC2218, ERBB2+, non-TDP, TDP Score −0.849; GDSC data base; cited from earlier work
# HCC1187 [1] = settings: HCC1187, TNBC, TDP, TDP Score 0.152; GDSC data base; cited from earlier work
# HCC1599 [2] = settings: HCC1599, TNBC, non-TDP, TDP Score −0.447; GDSC data base; cited from earlier work
# HCC70 = test: Cell viability IC50 (WST-8), HCC70; assay type: cell-based, human; settings: HCC70, TDP Score −0.3, 72 hours
# From the text: (§1) All of the cell lines were purchased from the American Type Culture Collection (ATCC). They were authenticated by Short Tandem Repeat (STR) DNA profiling and regularly tested for Mycoplasma contamination using the MycoAlert PLUS Mycoplasma Detection Kit (Lonza). MB436, HCC38, HCC1187, HCC1395, MDA-MB231, HCC1937, HCC1599, HCC1143, HCC70, DU4475, MDA-MB157, HCC1806 were maintained in RPMI with 10% fetal bovine serum (FBS). BT549 was maintained in DMEM with 10% v/v FBS, and Hs578T in DMEM with 10% FBS and 0.01 mg/ml bovine insulin. IC50 value determinations were obtained by plating target cells in 96 well plates at a density of 1-5×10^3 cells per well. After twenty-four hours, cisplatin (Santa Cruz Biotechnology, Inc.) or carboplatin (Selleck Chemicals) were added to the culture medium in half-log serial dilutions in the range of 3.3 nM to 100 μM, in triplicate wells. Cells were incubated for 72 hours before assessing cell viability using the WST-8 assay (Dojindo Molecular Technologies, Inc.). Absorbance values were normalized to control wells (medium only) and IC50 values were calculated using the IC50R package. Two independent replicate experiments were carried out for each cell line and each treatment and the average IC50 value from the two experiments was used for the analysis.
# HCC1937 [3] = test: Cell viability IC50 (WST-8), HCC1937; assay type: cell-based, human; settings: HCC1937, TDP Score −0.17, 72 hours
# From the text: as §1
# HCC38 [4] = settings: HCC38, TNBC, TDP, TDP Score 0.367; GDSC data base; cited from earlier work
# BT549 = test: Cell viability IC50 (WST-8), BT549; assay type: cell-based, human; settings: BT549, TDP Score −0.3, 72 hours
# From the text: as §1
# HCC1806 = test: Cell viability IC50 (WST-8), HCC1806; assay type: cell-based, human; settings: HCC1806, TDP Score 0.08, 72 hours
# From the text: as §1
# HCC1187 [5] = test: Cell viability IC50 (WST-8), HCC1187; assay type: cell-based, human; settings: HCC1187, TDP Score 0.152, 72 hours
# From the text: as §1
# HCC1395 [6] = test: Cell viability IC50 (WST-8), HCC1395; assay type: cell-based, human; settings: HCC1395, TDP Score 0.118, 72 hours
# From the text: as §1
# HCC1937 [7] = settings: HCC1937, TNBC, non-TDP, TDP Score −0.17; GDSC data base; cited from earlier work
# HCC1143 = test: Cell viability IC50 (WST-8), HCC1143; assay type: cell-based, human; settings: HCC1143, TDP Score −0.424, 72 hours
# From the text: as §1
# HCC1395 [8] = settings: HCC1395, TNBC, TDP, TDP Score 0.118; GDSC data base; cited from earlier work
# T47D = settings: ER/PR+, non-TDP, TDP Score −0.269, GDSC data base; cited from earlier work
# MB231 [9] = test: Cell viability IC50 (WST-8), MB231; assay type: cell-based, human; settings: MB231, TDP Score −0.306, 72 hours
# From the text: as §1
# HCC38 [10] = test: Cell viability IC50 (WST-8), HCC38; assay type: cell-based, human; settings: HCC38, TDP Score 0.367, 72 hours
# From the text: as §1
# MB436 = test: Cell viability IC50 (WST-8), MB436; assay type: cell-based, human; settings: MB436, TDP Score 0.469, 72 hours
# From the text: as §1
# MB231 [11] = settings: MB231, TNBC, non-TDP, TDP Score −0.306; GDSC data base; cited from earlier work
# [12] = test system: TNBC patient derived xenograft (PDX) models; test: In vivo response in patient derived xenograft (PDX) models of TNBC; parameters: species or system mice; settings: for association of the TDP with sensitivity in PDX models: same eight TNBC PDX models, data not shown
# From the text: This hypothesis was explored further by testing in vivo response to cisplatin treatment in eight independent patient derived xenograft (PDX) models of TNBC. […] Thus in both established cell lines and in in vivo patient derived xenografts, TDP status is strongly associated with cisplatin sensitivity.
# TNBC patient-derived xenograft models were established at The Jackson Laboratory campus in Sacramento (JAX-West) and tested for cisplatin sensitivity as previously published. All animal procedures were performed under IACUC protocol #12027. Briefly, patient tumor material acquired from biopsy or surgical resection was implanted subcutaneously into the flank of NOD-scid IL2r gamma-chain null female mice (8-10 week-old). Models were considered “established” when log-phase growth in a second passage was evident. Individual tumor-bearing mice were randomized into treatments cohorts of at least six animals each on an accrual basis when tumors reached a volume of 150 mm^3 (day 0), at which point each tumor model was assessed for its response to cisplatin treatment, administrated at a dose of 2 mg/kg body weight and following a three-week regimen consisting of one IV injection per week. Changes in tumor volumes were measured twice a week for four full weeks from the beginning of the treatment or until tumor volumes reached the 1500 mm^3 endpoint. Treatment outcome was evaluated in terms of total response (percentage of tumor shrinkage/growth at day 20 relative to day 0). The […] TNBC PDX models that were available as part of The Jackson Laboratory inventory of TNBC PDX Live™ tumor-bearing mice were analyzed. In combination with a high number of replicates per model (6-10 animals per treatment arm), enough power to observe the statistically significant effect of the TDP configuration on cisplatin response was obtained.
# DU4475 = test: Cell viability IC50 (WST-8), DU4475; assay type: cell-based, human; settings: DU4475, TDP Score −0.36, 72 hours
# From the text: as §1
# HCC1954 = settings: HCC1954, ERBB2+, non-TDP, TDP Score −0.434; GDSC data base; cited from earlier work
# HCC1599 [13] = test: Cell viability IC50 (WST-8), HCC1599; assay type: cell-based, human; settings: HCC1599, TDP Score −0.447, 72 hours
# From the text: as §1
# MB157 = test: Cell viability IC50 (WST-8), MB157; assay type: cell-based, human; settings: MB157, TDP Score −0.39, 72 hours
# From the text: as §1
# Hs578T = test: Cell viability IC50 (WST-8), Hs578T; assay type: cell-based, human; settings: TDP Score −0.54, 72 hours
# From the text: as §1
# MCF-7 = settings: MCF-7, ER/PR+, TDP, TDP Score 0.385; GDSC data base; cited from earlier work
smiles,measurement,setting,value
Cc1cc(N2CCOCC2)cc2[nH]c(-c3c(NC[C@@H](O)c4cccc(Cl)c4)cc[nH]c3=O)nc12 [BMS-536924],IC50 Ln (μM),HCC2157,3.64 Ln (μM)
same,IC50 Ln (μM),HCC2218,6.22 Ln (μM)
same,IC50 Ln (μM),HCC1187 [1],2.81 Ln (μM)
same,IC50 Ln (μM),HCC1599 [2],5.27 Ln (μM)
"N.N.[Cl][Pt][Cl] [Cisplatin, cisplatin]",IC50 Ln (μM),HCC70,2.75 Ln (μM)
same,IC50 Ln (μM),HCC1937 [3],3.22 Ln (μM)
same,IC50 Ln (μM),HCC38 [4],5.07 Ln (μM)
same,IC50 Ln (μM),BT549,2.28 Ln (μM)
same,IC50 Ln (μM),HCC1806,2.76 Ln (μM)
same,IC50 Ln (μM),HCC1187 [5],2.15 Ln (μM)
same,IC50 Ln (μM),HCC1395 [6],2.4 Ln (μM)
same,IC50 Ln (μM),HCC1937 [7],4.92 Ln (μM)
same,IC50 Ln (μM),HCC1143,3.3 Ln (μM)
same,IC50 Ln (μM),HCC2218,5.99 Ln (μM)
same,IC50 Ln (μM),HCC1187 [1],4.76 Ln (μM)
same,IC50 Ln (μM),HCC1395 [8],4.96 Ln (μM)
same,IC50 Ln (μM),T47D,4.86 Ln (μM)
same,IC50 Ln (μM),MB231 [9],3.52 Ln (μM)
same,IC50 Ln (μM),HCC38 [10],2.8 Ln (μM)
same,IC50 Ln (μM),MB436,1.17 Ln (μM)
same,IC50 Ln (μM),MB231 [11],5.57 Ln (μM)
same,tumor growth compared to the vehicle arm,"[12]; all five TDP PDX models, three-week regimen, 2 mg/kg IV weekly",significant reduction in tumor growth
same,tumor shrinkage of individual tumors (partial response),"[12]; four out of the five TDP PDX models, three-week regimen, 2 mg/kg, one IV injection per week",> 80%
same,reduction in tumor volume after three weeks of treatment,"[12]; three non-TDP PDX models, 2 mg/kg IV weekly",none of the three non-TDP models analyzed exhibited a reduction in tumor volume
same,response compared to the vehicle arm,"[12]; three non-TDP PDX models, three-week regimen, 2 mg/kg IV weekly",only one out of the three models showed a significant response
same,IC50 Ln (μM),DU4475,2.04 Ln (μM)
same,IC50 Ln (μM),HCC1954,6.94 Ln (μM)
same,IC50 Ln (μM),HCC1599 [13],2.65 Ln (μM)
same,IC50 Ln (μM),MB157,2.62 Ln (μM)
same,IC50 Ln (μM),Hs578T,3.62 Ln (μM)
Nc1ccn([C@@H]2O[C@H](CO)[C@@H](O)[C@@H]2O)c(=O)n1 [Cytarabine],IC50 Ln (μM),HCC38 [4],0.63 Ln (μM)
same,IC50 Ln (μM),HCC1937 [7],3.32 Ln (μM)
same,IC50 Ln (μM),HCC2218,4.68 Ln (μM)
same,IC50 Ln (μM),HCC1187 [1],3.36 Ln (μM)
same,IC50 Ln (μM),HCC1395 [8],1.1 Ln (μM)
same,IC50 Ln (μM),T47D,3.47 Ln (μM)
same,IC50 Ln (μM),MB231 [11],2.18 Ln (μM)
same,IC50 Ln (μM),MCF-7,0.69 Ln (μM)
same,IC50 Ln (μM),HCC1954,3.41 Ln (μM)
COc1cc(N2CCC(N3CCN(C)CC3)CC2)ccc1Nc1ncc(Cl)c(Nc2ccccc2S(=O)(=O)C(C)C)n1 [NVP-TAE684],IC50 Ln (μM),HCC2157,0.38 Ln (μM)
same,IC50 Ln (μM),HCC2218,5.37 Ln (μM)
same,IC50 Ln (μM),HCC1187 [1],0.62 Ln (μM)
same,IC50 Ln (μM),HCC1599 [2],2.98 Ln (μM)
"O=C(c1cc(Cc2n[nH]c(=O)c3ccccc23)ccc1F)N1CCN(C(=O)C2CC2)CC1 [Olaparib, olaparib]",IC50 Ln (μM),HCC70,4.19 Ln (μM)
same,IC50 Ln (μM),HCC1937 [3],4.51 Ln (μM)
same,IC50 Ln (μM),BT549,3.09 Ln (μM)
same,IC50 Ln (μM),HCC1806,2.40 Ln (μM)
same,IC50 Ln (μM),HCC1187 [5],3.57 Ln (μM)
same,IC50 Ln (μM),HCC1395 [6],4.28 Ln (μM)
same,IC50 Ln (μM),HCC1143,4.57 Ln (μM)
same,IC50 Ln (μM),MB231 [9],3.49 Ln (μM)
same,IC50 Ln (μM),HCC38 [10],1.99 Ln (μM)
same,IC50 Ln (μM),MB436,3.77 Ln (μM)
same,IC50 Ln (μM),MB157,3.16 Ln (μM)
same,IC50 Ln (μM),Hs578T,4.61 Ln (μM)
CC(=O)O[C@@]12CO[C@@H]1C[C@H](O)[C@@]1(C)C(=O)[C@H](O)C3=C(C)[C@@H](OC(=O)[C@H](O)[C@@H](NC(=O)OC(C)(C)C)c4ccccc4)C[C@@](O)([C@@H](OC(=O)c4ccccc4)[C@H]21)C3(C)C [docetaxel],association of the TDP with sensitivity in PDX models,[12],not associated with sensitivity
COc1cccc2c1C(=O)c1c(O)c3c(c(O)c1C2=O)C[C@@](O)(C(=O)CO)C[C@@H]3O[C@H]1C[C@H](N)[C@H](O)[C@H](C)O1 [doxorubicin],association of the TDP with sensitivity in PDX models,[12],not associated with sensitivity
